Results: ChEMBL document CHEMBL4043245, “Synthesis, characterization, and cellular localization of a fluorescent probe of the antimalarial 8-aminoquinoline primaquine” (Bioorg Med Chem Lett, 2017)

Experiments:
Erythrocyte = assay: Drug uptake in human erythrocytes after 30 to 45 mins by mitotracker red dye based flow cytometric method; format: ADME, cell-based
Plasmodium falciparum [1] = assay: Antimalarial activity against asexual blood stage of chloroquine-susceptible Plasmodium falciparum 3D7 infected in human erythrocytes by [3H]-Hypoxanthine uptake assay; format: functional, cell-based
Plasmodium berghei = assay: Antiplasmodial activity against liver stage chloroquine-susceptible Plasmodium berghei 1052 C11 infected in HepG2 cells after 44 hrs by TopCount microplate luminescence assay; format: functional, cell-based; details: 1052 C11, HepG2, 44 h
Plasmodium falciparum [2] = assay: Antimalarial activity against asexual blood stage of chloroquine-susceptible Plasmodium falciparum D6 infected in human erythrocytes by [3H]-Hypoxanthine uptake assay; format: functional, cell-based
HepG2 = assay: Cytotoxicity against human HepG2 cells after 24 hrs by MTS assay; format: cell-based; details: HepG2, 24 h
Plasmodium falciparum [3] = assay: Antimalarial activity against asexual blood stage of chloroquine-resistant Plasmodium falciparum W2 infected in human erythrocytes by [3H]-Hypoxanthine uptake assay; format: functional, cell-based
[4] = Drug uptake in apicoplast of asexual blood stage of Plasmodium falciparum D10-ACPLEADER-GFP ring forms infected in human erythrocytes at 150 uM after 30 to 45 mins by mitotracker Red dye based fluorescence microscopic analysis; format: ADME, cell-based
[5] = Drug uptake in food vacuole of asexual blood stage of Plasmodium falciparum D10-ACPLEADER-GFP ring forms infected in human erythrocytes at 150 uM after 30 to 45 mins by mitotracker Red dye based fluorescence microscopic analysis; format: ADME, cell-based
[6] = Drug uptake in cytoplasm of asexual blood stage of Plasmodium falciparum D10-ACPLEADER-GFP schizont forms infected in human erythrocytes at 150 uM after 30 to 45 mins by mitotracker Red dye based fluorescence microscopic analysis; format: ADME, cell-based
[7] = Drug uptake in cytoplasm of asexual blood stage of Plasmodium falciparum D10-ACPLEADER-GFP ring forms infected in human erythrocytes at 150 uM after 30 to 45 mins by mitotracker Red dye based fluorescence microscopic analysis; format: ADME, cell-based
[8] = Drug uptake in mitochondria of Plasmodium falciparum D10-ACPLEADER-GFP gametocyte stage 4 infected in human erythrocytes at 150 uM after 30 to 45 mins by mitotracker Red dye based fluorescence microscopic analysis; format: ADME, cell-based
[9] = Drug uptake in human HepG2 cells infected with liver stage chloroquine-susceptible Plasmodium berghei 1052 C11 by mitotracker red dye based fluorescence microscopic analysis; format: ADME, cell-based
[10] = Drug uptake in mitochondria of Plasmodium falciparum D10-ACPLEADER-GFP gametocyte stage 5 infected in human erythrocytes at 150 uM after 30 to 45 mins by mitotracker Red dye based fluorescence microscopic analysis; format: ADME, cell-based
[11] = Drug uptake in apicoplast of asexual blood stage of Plasmodium falciparum D10-ACPLEADER-GFP schizont forms infected in human erythrocytes at 150 uM after 30 to 45 mins by mitotracker Red dye based fluorescence microscopic analysis; format: ADME, cell-based
[12] = Drug uptake in apicoplast of asexual blood stage of Plasmodium falciparum D10-ACPLEADER-GFP trophozoite forms infected in human erythrocytes at 150 uM after 30 to 45 mins by mitotracker Red dye based fluorescence microscopic analysis; format: ADME, cell-based
[13] = Drug uptake in mitochondria of asexual blood stage of Plasmodium falciparum D10-ACPLEADER-GFP schizont forms infected in human erythrocytes at 150 uM after 30 to 45 mins by mitotracker Red dye based fluorescence microscopic analysis; format: ADME, cell-based
[14] = Drug uptake in mitochondria of asexual blood stage of Plasmodium falciparum D10-ACPLEADER-GFP ring forms infected in human erythrocytes at 150 uM after 30 to 45 mins by mitotracker Red dye based fluorescence microscopic analysis; format: ADME, cell-based
[15] = Drug uptake in relict plastid of asexual blood stage of Plasmodium falciparum D10-ACPLEADER-GFP schizont forms infected in human erythrocytes at 150 uM after 30 to 45 mins by mitotracker Red dye based fluorescence microscopic analysis; format: ADME, cell-based
[16] = Drug uptake in relict plastid of asexual blood stage of Plasmodium falciparum D10-ACPLEADER-GFP ring forms infected in human erythrocytes at 150 uM after 30 to 45 mins by mitotracker Red dye based fluorescence microscopic analysis; format: ADME, cell-based
[17] = Drug uptake in mitochondria of asexual blood stage of Plasmodium falciparum D10-ACPLEADER-GFP trophozoite forms infected in human erythrocytes at 150 uM after 30 to 45 mins by mitotracker Red dye based fluorescence microscopic analysis; format: ADME, cell-based
[18] = Drug uptake in nucleus of asexual blood stage of Plasmodium falciparum D10-ACPLEADER-GFP trophozoite forms infected in human erythrocytes at 150 uM after 30 to 45 mins by mitotracker Red dye based fluorescence microscopic analysis; format: ADME, cell-based
[19] = Drug uptake in nucleus of asexual blood stage of Plasmodium falciparum D10-ACPLEADER-GFP ring forms infected in human erythrocytes at 150 uM after 30 to 45 mins by mitotracker Red dye based fluorescence microscopic analysis; format: ADME, cell-based
[20] = Drug uptake in cytoplasm of Plasmodium falciparum D10-ACPLEADER-GFP gametocyte stage 5 infected in human erythrocytes at 150 uM after 30 to 45 mins by mitotracker Red dye based fluorescence microscopic analysis; format: ADME, cell-based
[21] = Drug uptake in relict plastid of asexual blood stage of Plasmodium falciparum D10-ACPLEADER-GFP trophozoite forms infected in human erythrocytes at 150 uM after 30 to 45 mins by mitotracker Red dye based fluorescence microscopic analysis; format: ADME, cell-based
[22] = Drug uptake in food vacuole of asexual blood stage of Plasmodium falciparum D10-ACPLEADER-GFP schizont forms infected in human erythrocytes at 150 uM after 30 to 45 mins by mitotracker Red dye based fluorescence microscopic analysis; format: ADME, cell-based
[23] = Drug uptake in cytoplasm of asexual blood stage of Plasmodium falciparum D10-ACPLEADER-GFP trophozoite forms infected in human erythrocytes at 150 uM after 30 to 45 mins in presence of primaquine by mitotracker Red dye based fluorescence microscopic analysis; format: ADME, cell-based
[24] = Drug uptake in nucleus of asexual blood stage of Plasmodium falciparum D10-ACPLEADER-GFP schizont forms infected in human erythrocytes at 150 uM after 30 to 45 mins by mitotracker Red dye based fluorescence microscopic analysis; format: ADME, cell-based
[25] = Drug uptake in cytoplasm of Plasmodium falciparum D10-ACPLEADER-GFP gametocyte stage 4 infected in human erythrocytes at 150 uM after 30 to 45 mins by mitotracker Red dye based fluorescence microscopic analysis; format: ADME, cell-based
[26] = Drug uptake in food vacuole of Plasmodium falciparum D10-ACPLEADER-GFP gametocyte stage 4 infected in human erythrocytes at 150 uM after 30 to 45 mins by mitotracker Red dye based fluorescence microscopic analysis; format: ADME, cell-based
[27] = Drug uptake in food vacuole of Plasmodium falciparum D10-ACPLEADER-GFP gametocyte stage 5 infected in human erythrocytes at 150 uM after 30 to 45 mins by mitotracker Red dye based fluorescence microscopic analysis; format: ADME, cell-based
[28] = Drug uptake in food vacuole of asexual blood stage of Plasmodium falciparum D10-ACPLEADER-GFP trophozoite forms infected in human erythrocytes at 150 uM after 30 to 45 mins by mitotracker Red dye based fluorescence microscopic analysis; format: ADME, cell-based
[29] = Drug uptake in cytoplasm of asexual blood stage of Plasmodium falciparum D10-ACPLEADER-GFP trophozoite forms infected in human erythrocytes at 150 uM after 30 to 45 mins by mitotracker Red dye based fluorescence microscopic analysis; format: ADME, cell-based

O=c1ccc2ccccc2o1 [COUMARIN]
Drug uptake (Erythrocyte): Not Active

COc1cc(NC(C)CCCN)c2ncccc2c1 (stereo not drawn) [PRIMAQUINE]
IC50 (Plasmodium falciparum [1]): 5.77 µM
IC50 (Plasmodium berghei): 17.2 µM
IC50 (Plasmodium falciparum [2]): 5.16 µM
IC50 (HepG2): 101 µM
IC50 (Plasmodium falciparum [3]): 2.35 µM

COc1cc(NC(C)CCCNC(=O)CCCc2cc(=O)oc3cc(O)ccc23)c2ncccc2c1 (stereo not drawn)
Drug uptake [4]: Not Active
IC50 (Plasmodium falciparum [1]): 10.5 µM
Drug uptake [5]: Not Active
Drug uptake [6]: Active
Drug uptake [7]: Active
Drug uptake [8]: Not Active
Drug uptake [9]: Not Active
Drug uptake (Erythrocyte): Not Active
Drug uptake [10]: Not Active
Drug uptake [11]: Not Active
IC50 (Plasmodium berghei): 20.7 µM
IC50 (Plasmodium falciparum [2]): 4.47 µM
Drug uptake [12]: Not Active
Drug uptake [13]: Not Active
Drug uptake [14]: Not Active
Drug uptake [15]: Not Active
Drug uptake [16]: Not Active
Drug uptake [17]: Not Active
Drug uptake [18]: Not Active
Drug uptake [19]: Not Active
Drug uptake [20]: Active
Drug uptake [21]: Not Active
Drug uptake [22]: Not Active
Drug uptake [23]: Not Active
Drug uptake [24]: Not Active
Drug uptake [25]: Active
Drug uptake [26]: Not Active
Drug uptake [27]: Not Active
IC50 (HepG2): 44.5 µM
IC50 (Plasmodium falciparum [3]): 3.52 µM
Drug uptake [28]: Not Active
Drug uptake [29]: Active
